Data set [1] in a line: Metabolic stability in liver microsomes. It counts as in vitro ADME. The note with it: 1 μM, calculated from half-life. On the procedure: The metabolic stability of BAY 1024767 was determined by incubating the compound with suspensions of liver microsomes from different species at a concentration of 1 μM. The intrinsic clearance was calculated from the half-life of the compound. Together with additional parameters like microsomal protein content, species-specific liver weight and liver blood flow, the hepatic in vivo blood clearance (CLH) was calculated.

Data set [2] relates to VCaP (AR wild-type, overexpressed). As to the kind of experiment: Cell proliferation assay (Alamar Blue). The note with it: Homo sapiens, 168 h. It counts as cell-based. As to the method: (§1) All assays were performed in 96-well microtiter plates. […] LAPC-4 cells were plated at 4,000 cells/well, VCaP cells at 16,000 cells/well, LNCaP cells at 2,000 cells/well, 22Rv1 cells at 4,000 cells/well. After 1 day, the cells were treated with R1881 (0.1 nM final concentration, except for LAPC-4 where the final concentration was 1 nM) and compound (day 0). Cell number was determined by Alamar Blue staining (2 h). Fluorescence was measured in a Victor3 device (PerkinElmer, Waltham, MA, USA) with the excitation filter set at 530 nm and the emission filter set at 590 nm. C0 was defined as the signal measured at day 7 for cells treated only with R1881 and CI was defined as the signal measured at day 7 for cells grown without R1881 or compound.
A general note: Resazurin is reduced to fluorescent resorufin, in cell work by metabolically active cells.

Data set [3] relates to 22Rv1 (AR H874Y, splice variants). In words: Cell proliferation assay (Alamar Blue). The class given is cell-based. The settings on record: Homo sapiens, 22Rv1, 168 h. On the procedure:
as §1

For another data set, the system named is LAPC-4 (AR wild-type). In words: Cell proliferation assay (Alamar Blue). It counts as cell-based. The settings on record: Homo sapiens, LAPC4, 168 h. As to the method: as §1
The subject of another data set is LNCaP (AR 877A). In words: Cell proliferation assay (Alamar Blue). It counts as cell-based. The settings on record: Homo sapiens, 168 h. As to the method: as §1
Another data set can be described thus: Caco-2 permeation assay. The settings on record: human. It counts as in vitro ADME. On the procedure: Caco-2 cells were seeded on 24-well insert plates, 0.4 μm pore size, and grown for 15 days. The test compound was dissolved in DMSO and added either to the apical (A) or basolateral (B) compartment at a final concentration of 2 μM. Before and after 2 h incubation, samples were taken from both compartments and analyzed by LC/MS/MS. The apparent permeability (Papp) was determined for each direction and the efflux ratio was calculated as Papp B-A/Papp A-B.

For a further data set, the target named is T1, AR W741C (Homo sapiens, UniProt P10275, W742C).
T1 sequence (P10275 1-920 W742C): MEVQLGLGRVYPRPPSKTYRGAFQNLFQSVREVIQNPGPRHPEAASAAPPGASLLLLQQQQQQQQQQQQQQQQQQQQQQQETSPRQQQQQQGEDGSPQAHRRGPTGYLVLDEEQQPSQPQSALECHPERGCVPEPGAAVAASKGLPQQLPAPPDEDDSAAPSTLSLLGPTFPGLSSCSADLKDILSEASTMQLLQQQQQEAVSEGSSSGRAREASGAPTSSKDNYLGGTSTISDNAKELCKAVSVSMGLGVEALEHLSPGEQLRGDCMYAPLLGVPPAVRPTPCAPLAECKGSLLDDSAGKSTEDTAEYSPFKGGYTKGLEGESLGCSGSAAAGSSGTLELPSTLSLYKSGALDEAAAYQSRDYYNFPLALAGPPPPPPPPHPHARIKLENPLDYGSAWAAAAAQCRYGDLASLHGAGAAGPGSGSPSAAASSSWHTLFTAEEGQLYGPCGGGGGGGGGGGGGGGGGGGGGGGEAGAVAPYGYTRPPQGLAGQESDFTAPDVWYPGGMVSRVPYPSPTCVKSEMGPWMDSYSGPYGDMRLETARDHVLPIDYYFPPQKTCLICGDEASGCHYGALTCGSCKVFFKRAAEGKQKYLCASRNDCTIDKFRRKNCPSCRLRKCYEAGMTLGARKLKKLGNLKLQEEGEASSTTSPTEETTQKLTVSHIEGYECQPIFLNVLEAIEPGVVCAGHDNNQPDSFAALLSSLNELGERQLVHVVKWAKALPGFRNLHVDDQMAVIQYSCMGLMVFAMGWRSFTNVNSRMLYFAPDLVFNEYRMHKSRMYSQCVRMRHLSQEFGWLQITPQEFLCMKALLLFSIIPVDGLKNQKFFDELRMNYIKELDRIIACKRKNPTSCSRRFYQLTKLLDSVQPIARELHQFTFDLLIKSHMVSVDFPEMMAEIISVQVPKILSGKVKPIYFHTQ
In words: cell-based. The settings on record: IC50 (antagonistic activity).

Data set [4] can be described thus: Unbound plasma concentrations after multiple oral doses in male SCID mice. It counts as in vivo, mouse. The note with it: multiple oral doses of 50 mg/kg every second day. An excerpt:
Pharmacokinetic profiles in mouse.
indicate in vitro unbound anti-proliferative GI50 values measured in VCaP cells. Unbound concentrations -/+ SD for 2-3
(1 picture or pasted object on this page, not shown here)

Data set [5] relates to AR binding to PSA gene regulatory elements. As to the kind of experiment: Chromatin immunoprecipitation (ChIP) in VCaP cells. The note with it: 6 h, 1 nM R1881 with 5 μM compound.
Experimental: VCaP cells were grown in 10 cm plates to 80% confluence. One plate of cells was used per immunoprecipitation. The cells were maintained in DMEM-cFCS for 3 days prior to treatment. […] After cell lysis (5 mM PIPES pH 8, 85 mM KCl, 0.5 % Nonidet P40) and nuclei isolation using RIPA buffer, chromatin was sheared to 100-2000 base pair-long fragments using a S220 ultrasonicator (Covaris, Woburn, MA, USA).
Immunoprecipitations were performed using the IPstar device (Diagenode, Liège, Belgium) with 20 μL of magnetic Protein A bead suspension. […] The buffers used were: bead wash (10 mM Tris-HCl pH 8, 1 mM EDTA, 0.02 % Tween-20), wash 1 (20 mM Tris-HCl pH 8, 2 mM EDTA, 150 mM NaCl, 1 % Triton X-100, 0.1 % SDS), wash 2 (20 mM Tris-HCl pH 8, 2 mM EDTA, 500 mM NaCl, 1 % Triton X-100, 0.1 % SDS), wash 3 (10 mM Tris-HCl pH 8, 1 mM EDTA, 250 mM LiCl, 1 % Nonidet P40, 1 % sodium deoxycholate) and elute (0.1 M NaHCO3, 1 % SDS).
The samples were treated with RNaseA and Proteinase K, and were purified using the Qiagen PCR purification kit before analysis by qPCR.
The target of another data set is AR M895T (Homo sapiens, UniProt P10275, M895T/M896T). As to the kind of experiment: cell-based. The settings on record: IC50 (antagonistic activity).
AR M895T, sequence (P10275 whole entry M895T/M896T): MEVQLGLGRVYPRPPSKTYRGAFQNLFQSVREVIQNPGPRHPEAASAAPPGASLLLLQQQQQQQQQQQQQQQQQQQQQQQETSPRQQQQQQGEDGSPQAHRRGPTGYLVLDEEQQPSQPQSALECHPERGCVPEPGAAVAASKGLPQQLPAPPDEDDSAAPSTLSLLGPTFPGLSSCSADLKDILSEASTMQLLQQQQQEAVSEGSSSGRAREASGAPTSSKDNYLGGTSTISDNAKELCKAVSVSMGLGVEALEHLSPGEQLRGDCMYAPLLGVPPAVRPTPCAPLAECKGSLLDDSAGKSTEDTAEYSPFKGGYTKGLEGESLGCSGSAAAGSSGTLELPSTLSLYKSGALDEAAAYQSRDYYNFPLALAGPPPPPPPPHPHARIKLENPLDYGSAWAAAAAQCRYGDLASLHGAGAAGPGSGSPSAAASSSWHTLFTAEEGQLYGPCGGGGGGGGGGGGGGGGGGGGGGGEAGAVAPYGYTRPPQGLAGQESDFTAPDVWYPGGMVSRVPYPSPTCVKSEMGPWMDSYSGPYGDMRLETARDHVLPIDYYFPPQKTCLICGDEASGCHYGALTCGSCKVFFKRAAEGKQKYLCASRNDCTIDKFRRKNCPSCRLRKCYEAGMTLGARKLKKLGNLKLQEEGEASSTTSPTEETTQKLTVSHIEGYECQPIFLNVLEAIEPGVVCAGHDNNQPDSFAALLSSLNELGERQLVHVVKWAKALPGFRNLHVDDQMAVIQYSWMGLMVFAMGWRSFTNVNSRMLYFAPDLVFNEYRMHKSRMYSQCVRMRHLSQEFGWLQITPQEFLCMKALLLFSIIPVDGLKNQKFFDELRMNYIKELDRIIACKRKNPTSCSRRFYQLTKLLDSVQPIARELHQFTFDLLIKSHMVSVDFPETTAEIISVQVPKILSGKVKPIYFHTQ

The values below come from publication PMC4868737, “BAY 1024767 blocks androgen receptor mutants found in castration-resistant prostate cancer patients” (Oncotarget, 2016).

Take `CC(C)(O)COc1ccc(CN2C(=S)N(c3ccc(C#N)c(C(F)(F)F)c3)C(=O)C2(C)C)cn1` [BAY 1024767]: the CLH in [1] (dog liver microsomes) was 4.5 mL/min/kg; in data set [1] (human liver microsomes), 5.83 mL/min/kg; in data set [1] (monkey liver microsomes) it was 11.7 mL/min/kg; in data set [1] (mouse liver microsomes), 3.17 mL/min/kg; in [1] (rat liver microsomes), 4.67 mL/min/kg. For the same compound, the GI50 (as a rule, the concentration that inhibits growth by half) in data set [2] came to 229 nM; in data set [3], 41 nM; in the data set on LAPC-4 (AR wild-type), 46 nM; with LNCaP (AR 877A) it was 221 nM. Besides, the efflux ratio (as a rule, a quotient of directional permeabilities that is used to spot active efflux) at 2 h, 2 μM in the data set “Caco-2 permeation assay” is 0.61. For the same compound, the Papp A→B (in general, how fast a substance crosses the layer from the apical side) at 2 h, 2 μM in “Caco-2 permeation assay” (2 μM, 2 h) was 18.3 ×10⁻⁶ cm/s. Besides, the IC50 – broadly, the point on the concentration scale where inhibition reaches its midpoint – at AR W741C (R1881 0.1 nM) amounted to 49 nM; on AR W741C (R1881 1 nM), 190 nM; against AR W741C (R1881 10 nM), 890 nM; on AR M895T (R1881 1 nM) it was 37 nM; against AR M895T (R1881 10 nM) it was 220 nM. Besides, the “unbound plasma concentrations versus unbound anti-proliferative GI50 in VCaP cells” value in data set [4] is given as “remained over the unbound anti-proliferative GI50 values”. For the same compound, the “AR binding to the PSA enhancer” value in data set [5] is recorded as “entirely prevented”.
